Assay results published in PMC5957078 (Journal of medicinal chemistry, 2016).
In brackets after ≈: the same amount, converted by molar mass. Like-named read-outs stand apart in the source and are kept apart here. Blank lines part the entries; values can stand above or below the molecule they belong to.

Tests used:
[1] = target: T1, serine/threonine kinase IreK (Enterococcus faecalis, UniProt Q820A8); experiment: biochemical
T1 sequence (Q820A8 1-718): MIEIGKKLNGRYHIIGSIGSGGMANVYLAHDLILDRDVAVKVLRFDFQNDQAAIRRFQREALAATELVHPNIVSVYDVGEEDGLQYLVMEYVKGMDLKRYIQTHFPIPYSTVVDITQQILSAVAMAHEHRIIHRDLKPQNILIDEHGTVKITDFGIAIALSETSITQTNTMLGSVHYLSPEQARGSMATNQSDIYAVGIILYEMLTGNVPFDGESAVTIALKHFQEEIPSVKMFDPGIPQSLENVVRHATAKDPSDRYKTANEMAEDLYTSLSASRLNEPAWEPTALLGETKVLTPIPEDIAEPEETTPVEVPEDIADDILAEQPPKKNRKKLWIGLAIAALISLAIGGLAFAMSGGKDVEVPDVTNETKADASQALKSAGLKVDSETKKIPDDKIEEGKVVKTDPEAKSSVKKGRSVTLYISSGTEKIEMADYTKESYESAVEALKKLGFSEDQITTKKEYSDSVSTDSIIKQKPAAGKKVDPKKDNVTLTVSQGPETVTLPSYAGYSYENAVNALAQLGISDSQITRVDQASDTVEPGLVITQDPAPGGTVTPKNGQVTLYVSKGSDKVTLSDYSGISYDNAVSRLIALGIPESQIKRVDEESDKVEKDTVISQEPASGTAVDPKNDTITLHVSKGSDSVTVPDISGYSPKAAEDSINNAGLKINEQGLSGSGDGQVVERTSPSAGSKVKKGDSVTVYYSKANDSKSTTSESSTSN

E. coli DNA-gyrase = E. coli DNA-gyrase (Escherichia coli, UniProt P0AES6); experiment: biochemical; type: biochemical; conditions: for inhibition of DNA-gyrase: at the highest tested concentrations
S. aureus C1BP13 (MRSA) = experiment: Antibiotic susceptibility with and without 6d, broth microdilution; type: cell-based; conditions: Staphylococcus aureus
[2] = tested on: S. aureus C1P15 (penicillinase); experiment: microbe, parasite or virus in culture; type: cell-based; conditions: Staphylococcus aureus
B. subtilis JH642 = experiment: Growth curves to distinguish bactericidal from bacteriostatic activity; type: cell-based, Bacillus subtilis; conditions: for bactericidal or bacteriostatic: 50 μg/ml added at OD600 0.5-0.6; for cell lysis in growing culture: 50 μg/ml, time course of 9 h, compared with vancomycin
[3] = tested on: resistant isolates (E. coli and S. aureus); type: cell-based
MRSA TCH1516 USA300 = conditions: for diameter of the ring of growth inhibition: 20 μg of compound per disk; for growth inhibition, disk diffusion: 100 μg per disk
Gyrase B = conditions: ligand of complex PDB: 3TTZ; cited from earlier work
[4] = tested on: E. coli ARS108 (Extended Spectrum Beta Lactamase); experiment: Antibiotic susceptibility with and without 6d, broth microdilution; type: cell-based, Escherichia coli
[5] = tested on: E. coli G28 (beta lactamase); experiment: microbe, parasite or virus in culture; type: cell-based; conditions: Escherichia coli
[6] = tested on: E. coli ATCC25922 (quality control strain); experiment: Antibiotic susceptibility, broth microdilution; type: cell-based; conditions: Escherichia coli
[7] = tested on: E. coli G02 (ofloxacin-resistant); experiment: Antibiotic susceptibility with and without 6d, broth microdilution; type: cell-based, Escherichia coli; conditions: for MBC / MIC: Escherichia coli
[8] = Escherichia coli, 144 h, read-out: MBC [with 6d]
[9] = Escherichia coli, 144 h, read-out: MIC [with 6d]

Compound: COc1cccc(-c2ccc([N+](=O)[O-])s2)c1OC [Compound 6s, 2-(2,3-dimethoxyphenyl)-5-nitrothiophene]
IC50 [1]: > 800 µM
IC50 (E. coli DNA-gyrase): > 800 µM

Compound: CC(=O)c1ccc(-c2ccc(N)cc2)s1 [Compound 6i, 1-(5-(4-aminophenyl)thiophen-2-yl)ethanone]
IC50 [1]: > 800 µM
IC50 (E. coli DNA-gyrase): > 800 µM

MIC (S. aureus C1BP13 (MRSA)): > 8 µg/mL
MIC (S. aureus C1BP13 (MRSA); 144 h, read-out: MIC [with 6d]): < 0.015 µg/mL
MIC [2]: > 8 µg/mL
MIC ([2]; 144 h, read-out: MIC [with 6d]): < 0.015 µg/mL
Compound: CC1(C)S[C@@H]2[C@H](NC(=O)Cc3ccccc3)C(=O)N2[C@H]1C(=O)O [PNG, penicillin G]
MBC (S. aureus C1BP13 (MRSA)): > 8 µg/mL
MBC (S. aureus C1BP13 (MRSA); 144 h, read-out: MBC [with 6d]): 4 µg/mL (≈ 12 µM)
MBC [2]: > 8 µg/mL
MBC ([2]; 144 h, read-out: MBC [with 6d]): 2 µg/mL (≈ 5.98 µM)

Compound: O=[N+]([O-])c1ccc(-c2ccccc2O)s1 [Compound 6d, 2-(5-nitrothiophen-2-yl)phenol]
bactericidal or bacteriostatic (B. subtilis JH642): bactericidal rather than bacteriostatic
cell lysis in growing culture (B. subtilis JH642): slow bacterial lysis
adjuvant activity in association with several antibiotics ([3]; resistant isolates of E. coli and S. aureus): restored the sensitivity of the resistant isolates tested
concentration with bactericidal activity when used alone ([3]; without antibiotic, all isolates): over 32 μg/mL
IC50 [1]: > 800 µM
diameter of the ring of growth inhibition (MRSA TCH1516 USA300): did not change
growth inhibition, disk diffusion (MRSA TCH1516 USA300): clear rings of growth inhibition
IC50 (E. coli DNA-gyrase): ≥ 400 µM
inhibition of DNA-gyrase (E. coli DNA-gyrase): inhibited DNA-gyrase

Compound: Cc1[nH]c(C(=O)N[C@@H]2CCN(c3ncc(C(=O)O)s3)C[C@@H]2F)c(Cl)c1Cl [pyrrolamide, 2-[(3S,4R)-4-{[(3,4-dichloro-5-methyl-1H-pyrrol-2-yl)carbonyl]amino}-3-fluoropiperidin-1-yl]-1,3-thiazole-5-carboxylic acid]
IC50 (Gyrase B): 0.004 µM

Compound: O=C(O)c1cn(C2CC2)c2cc(N3CCNCC3)c(F)cc2c1=O [ciprofloxacin]
inhibition of DNA-gyrase induced supercoiling of relaxed plasmid DNA (E. coli DNA-gyrase; control at 200 μM): completely inhibited

Compound: CO/N=C(\C(=O)N[C@@H]1C(=O)N2C(C(=O)O)=C(COC(C)=O)CS[C@H]12)c1csc(N)n1 [CTX, cefotaxime]
MIC ([4]; ARS108, antibiotic alone): > 8 µg/mL
MIC [with 6d] ([4]; ARS108, with 6d at 50μg/mL): < 0.03 µg/mL
MBC ([4]; Escherichia coli): > 8 µg/mL
MIC ([4]; Escherichia coli): > 16 µg/mL
MBC [4, 8]: > 8 µg/mL
MIC [4, 9]: 0.03 µg/mL (≈ 0.0659 µM)
MIC [5]: > 16 µg/mL

Compound: CC(=O)c1ccc(-c2cccc(O)c2)s1 [Compound 6k, 1-(5-(3-hydroxyphenyl)thiophen-2-yl)ethanone]
IC50 [1]: > 800 µM
IC50 (E. coli DNA-gyrase): > 400 µM
inhibition of DNA-gyrase (E. coli DNA-gyrase): inhibited DNA-gyrase

Compound: CC1COc2c(N3CCN(C)CC3)c(F)cc3c(=O)c(C(=O)O)cn1c23 (centres unmarked) [OFX, ofloxacin]
MIC [6]: 0.06 µg/mL (≈ 0.166 µM)
MBC [7]: > 8 µg/mL
MIC [7]: > 8 µg/mL
MBC ([7]; 144 h, read-out: MBC [with 6d]): > 8 µg/mL
MIC ([7]; 144 h, read-out: MIC [with 6d]): < 0.015 µg/mL
bactericidal effect of the antibiotic after addition of 6d ([7]; G02-resistant strain, with 6d): did not restore the bactericidal effect

Compound: Nc1ccc(-c2ccc([N+](=O)[O-])s2)cc1 [Compound 6c, 4-(5-nitro-2-thienyl)benzenamine]
IC50 [1]: > 800 µM
IC50 (E. coli DNA-gyrase): > 400 µM
inhibition of DNA-gyrase (E. coli DNA-gyrase): inhibited DNA-gyrase

MIC (S. aureus C1BP13 (MRSA)): > 8 µg/mL
MIC (S. aureus C1BP13 (MRSA); 144 h, read-out: MIC [with 6d]): < 0.015 µg/mL
Compound: Cc1onc(-c2ccccc2Cl)c1C(=O)N[C@@H]1C(=O)N2[C@@H]1SC(C)(C)[C@@H]2C(=O)O [CLX, cloxacillin]
MBC (S. aureus C1BP13 (MRSA)): > 8 µg/mL
MBC (S. aureus C1BP13 (MRSA); 144 h, read-out: MBC [with 6d]): > 8 µg/mL

Compound: O=[N+]([O-])c1ccc(-c2cccc(O)c2)s1 [Compound 6e, 3-(5-nitrothiophen-2-yl)phenol]
bactericidal or bacteriostatic (B. subtilis JH642): bactericidal rather than bacteriostatic
cell lysis in growing culture (B. subtilis JH642): more rapid cell lysis and clearing of the culture
IC50 [1]: > 800 µM
ring of growth inhibition (MRSA TCH1516 USA300; 4 μg per disk): reduced ring of growth inhibition
diameter of the ring of growth inhibition (MRSA TCH1516 USA300): did not change
growth inhibition, disk diffusion (MRSA TCH1516 USA300): clear rings of growth inhibition
IC50 (E. coli DNA-gyrase): > 800 µM

Compound: CC(=O)c1ccc(-c2cccc(N)c2)s1 [Compound 6h, 1-(5-(3-aminophenyl)thiophen-2-yl)ethanone]
IC50 [1]: > 800 µM
IC50 (E. coli DNA-gyrase): > 800 µM

Compound: O=[N+]([O-])c1ccc(-c2ccc(NCCO)cc2)s1 [Compound 7c, 2-((4-(5-nitrothiophen-2-yl)phenyl)amino)ethanol]
IC50 [1]: > 800 µM
IC50 (E. coli DNA-gyrase): > 400 µM
inhibition of DNA-gyrase (E. coli DNA-gyrase): inhibited DNA-gyrase

Compound: CC1(C)S[C@@H]2[C@H](NC(=O)[C@H](N)c3ccc(O)cc3)C(=O)N2[C@H]1C(=O)O [AMX, amoxicillin]
MBC ([4]; Escherichia coli): > 16 µg/mL
MIC ([4]; Escherichia coli): > 16 µg/mL
MBC [4, 8]: > 16 µg/mL
MIC [4, 9]: 0.03 µg/mL (≈ 0.0821 µM)
MBC [5]: > 16 µg/mL
MIC [5]: > 16 µg/mL
MBC ([5]; 144 h, read-out: MBC [with 6d]): 8 µg/mL (≈ 21.9 µM)
